What follows are compounds tested against H1047R PIK3CA enzyme (Homo sapiens, UniProt P42336, H1047R) (assay: ADP-Glo Biochemical PIK3CA Kinase Assay).
Description: Compounds to be assayed were plated in 16 doses of 1:2 serial dilutions (20 nL volume each well) on a 1536-well plate, and the plate warmed to room temperature. […] To the well was added 1 μL of 200 μM ATP and 20 μM of diC8-PIP2 in Substrate Assay Buffer (50 mM HEPES pH7.4, 50 mM NaCl, 5 mM DTT and 0.03% CHAPS) to start the reaction, and the plate was shaken for 10 seconds, then spun briefly at 1500 rpm, and then incubated for 60 minutes at room temperature. The reaction was stopped by adding 2 μL of ADP-Glo reagent (Promega), and spinning briefly at 1500 rpm, and then incubating for 40 minutes. ADP-Glo Detection reagent (Promega) was added and the plate spun briefly at 1500 rpm, then incubated for 30 minutes.

Sequence of H1047R PIK3CA enzyme (P42336 whole entry H1047R): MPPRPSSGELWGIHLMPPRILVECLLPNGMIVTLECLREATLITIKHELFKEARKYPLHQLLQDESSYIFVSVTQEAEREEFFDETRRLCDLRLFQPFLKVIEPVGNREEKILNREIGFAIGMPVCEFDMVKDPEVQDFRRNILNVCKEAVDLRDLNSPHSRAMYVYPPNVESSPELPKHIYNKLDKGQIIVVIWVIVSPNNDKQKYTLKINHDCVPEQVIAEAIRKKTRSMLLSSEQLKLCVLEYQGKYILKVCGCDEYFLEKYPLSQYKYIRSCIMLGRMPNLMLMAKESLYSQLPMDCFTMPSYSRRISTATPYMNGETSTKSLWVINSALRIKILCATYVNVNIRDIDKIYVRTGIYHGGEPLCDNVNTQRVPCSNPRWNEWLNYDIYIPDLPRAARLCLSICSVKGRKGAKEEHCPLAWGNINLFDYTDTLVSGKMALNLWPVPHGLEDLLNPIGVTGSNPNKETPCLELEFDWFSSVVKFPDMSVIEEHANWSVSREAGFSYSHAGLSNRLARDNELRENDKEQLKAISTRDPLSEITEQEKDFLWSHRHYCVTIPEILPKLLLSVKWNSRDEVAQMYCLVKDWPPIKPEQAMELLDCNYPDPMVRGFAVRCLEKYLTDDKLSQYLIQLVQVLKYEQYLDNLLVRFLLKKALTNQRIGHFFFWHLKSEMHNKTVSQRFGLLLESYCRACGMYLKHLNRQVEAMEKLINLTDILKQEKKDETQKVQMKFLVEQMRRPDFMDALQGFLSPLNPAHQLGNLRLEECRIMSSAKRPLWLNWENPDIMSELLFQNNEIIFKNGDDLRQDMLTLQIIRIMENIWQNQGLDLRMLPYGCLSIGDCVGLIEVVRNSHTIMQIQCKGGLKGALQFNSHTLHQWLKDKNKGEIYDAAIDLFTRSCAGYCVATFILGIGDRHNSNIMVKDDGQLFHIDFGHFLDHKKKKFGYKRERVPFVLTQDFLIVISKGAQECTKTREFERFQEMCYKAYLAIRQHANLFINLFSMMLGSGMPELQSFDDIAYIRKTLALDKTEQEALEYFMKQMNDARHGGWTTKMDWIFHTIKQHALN
Sequence of H1047R PIK3CA enzyme (P27986 whole entry partner): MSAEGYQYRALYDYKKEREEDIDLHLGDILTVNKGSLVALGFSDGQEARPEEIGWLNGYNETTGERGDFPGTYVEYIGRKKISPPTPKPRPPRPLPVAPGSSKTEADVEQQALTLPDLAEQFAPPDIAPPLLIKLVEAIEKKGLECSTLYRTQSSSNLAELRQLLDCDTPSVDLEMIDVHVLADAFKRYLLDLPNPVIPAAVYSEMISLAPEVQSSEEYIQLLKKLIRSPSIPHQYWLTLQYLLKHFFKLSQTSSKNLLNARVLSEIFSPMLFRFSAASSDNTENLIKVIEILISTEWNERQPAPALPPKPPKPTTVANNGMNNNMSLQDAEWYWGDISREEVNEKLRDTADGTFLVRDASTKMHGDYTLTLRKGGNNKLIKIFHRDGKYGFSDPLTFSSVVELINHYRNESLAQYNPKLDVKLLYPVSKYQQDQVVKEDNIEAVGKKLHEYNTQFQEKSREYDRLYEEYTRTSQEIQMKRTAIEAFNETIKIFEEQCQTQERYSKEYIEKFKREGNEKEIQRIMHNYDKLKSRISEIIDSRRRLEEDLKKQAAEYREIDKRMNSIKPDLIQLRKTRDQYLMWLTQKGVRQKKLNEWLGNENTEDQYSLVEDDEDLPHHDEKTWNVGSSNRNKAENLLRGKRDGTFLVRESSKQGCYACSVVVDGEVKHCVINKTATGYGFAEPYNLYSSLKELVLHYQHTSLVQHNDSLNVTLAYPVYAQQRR

Row | Compound | IC50 [µM]
1 | N#CC[C@H](O)c1cc(NC(=O)c2cc(F)cc(C(F)(F)F)c2)c2c(c1)C(=O)N[C@@H]2c1cc(F)ccc1Cl (single isomer, unassigned) [Compound I-1392] | 1 to 10
2 | O=C(Nc1cc(-c2ccc3ncnn3c2)nc2c1C(C1CCCC1)NC2=O)c1cc(F)cc(C(F)(F)F)c1 (stereo not drawn) [Compound I-1654] | 10 to 100
3 | CC(C)OC(C(=O)Nc1cc(-c2ccc3ncnn3c2)cc2c1C(c1cc(F)ccc1Cl)NC2=O)c1ccccc1 (stereo not drawn) [Compound I-1662] | 1 to 10
4 | CC(C)Cc1cc(NC(=O)c2cc(F)cc(C(F)(F)F)c2)c2c(c1)C(=O)NC2c1cc(F)ccc1Cl (stereo not drawn) [Compound I-293] | ≤ 0.1
5 | C[C@H](C#N)n1cc(-c2cc(NC(=O)c3cc(F)cc(C(F)(F)F)c3)c3c(c2)C(=O)N[C@@H]3c2cc(F)ccc2Cl)cn1 (single isomer, unassigned) [Compound I-1915] | 1 to 10
6 | O=C(Nc1cc(-c2cn3ncnc3cn2)cc2c1[C@@H](c1cc(F)ccc1Cl)NC2=O)c1cc(F)cc(C(F)(F)F)c1 [Compound I-1440] | 1 to 10
7 | O=C(Nc1cc(-c2ccc(=O)n(C3CC3)c2)cc2c1[C@@H](c1cc(F)ccc1Cl)NC2=O)c1cc(F)cc(C(F)(F)F)c1 [Compound I-744] | 1 to 10
8 | O=C1NC(c2cc(F)ccc2Cl)c2c1cc(-c1ccc3ncnn3c1)cc2C1=CCNCC1 (stereo not drawn) [Compound I-1997] | 10 to 100
9 | CN1CCN(c2cc(NC(=O)c3cc(F)cc(C(F)(F)F)c3)c3c(c2)C(=O)NC3c2cc(F)ccc2Cl)CC1=O (stereo not drawn) [Compound I-1249] | ≤ 0.1
10 | CC(C)(O)c1cc(F)cc(C(=O)Nc2cccc3c2C(c2cc(F)ccc2Cl)NC3=O)c1 (stereo not drawn) [Compound I-627] | 10 to 100
11 | N#Cc1cc(F)cc(C(=O)Nc2ccnc3c2C(c2ccccc2Cl)NC3=O)c1 (stereo not drawn) [Compound I-235] | 10 to 100
12 | O=C(Nc1cccc2c1[C@H]([C@@H]1CCCCCN1)NC2=O)c1cc(F)cc(C(F)(F)F)c1 (single isomer, unassigned) [Compound I-2319] | 10 to 100
13 | [2H]c1nc2cnc(-c3cc(NC(=O)c4cc(F)cc(C(F)(F)F)c4)c4c(c3)C(=O)NC4c3cc(F)ccc3Cl)cn2n1 (stereo not drawn) [Compound I-2012] | ≤ 0.1
14 | O=C(Nc1cc(-c2ccc3ncnn3c2)cc2c1[C@H](c1cc(F)c(F)cc1Cl)NC2=O)c1cc(F)cc(C(F)(F)F)c1 [Compound I-1059] | 1 to 10
15 | O=C(Nc1cc(Cc2ccc3nncn3c2)cc2c1C(c1cc(F)ccc1Cl)NC2=O)c1cc(F)cc(C(F)(F)F)c1 (stereo not drawn) [Compound I-1528] | ≤ 0.1
16 | O=C1NC(c2cc(F)ccc2Cl)c2c(NC(=O)N3CCC(F)C3)cc(Br)cc21 (stereo not drawn) [Compound I-542] | 10 to 100
17 | O=C1NC(c2cc(F)ccc2Cl)c2c(OC3CCOc4ccccc43)cc(-c3ccc4ncnn4c3)cc21 (stereo not drawn) [Compound I-2043] | 10 to 100
18 | N[C@]1(C(F)(F)F)CN(C(=O)Nc2cccc3c2[C@@H](c2cc(F)ccc2Cl)NC3=O)c2ccc(F)cc21 (racemic) [Compound I-2471] | 1 to 10
19 | CNC(=O)c1cc(NC(=O)c2csc3ccccc23)c2c(c1)C(=O)N[C@@H]2c1ccccc1C [Compound I-75, (R)-7-(Benzo[b]thiophene-3-carboxamido)-N-methyl-3-oxo-1-(o-tolyl)isoindoline-5-carboxamide] | 1 to 10
20 | COc1cc(C(=O)Nc2cccc3c2C(c2ccccc2C)NC3=O)cc(F)c1F (stereo not drawn) [Compound I-317] | 0.5 to 1
21 | N#Cc1cnn(Cc2cc(NC(=O)c3cc(F)cc(C(F)(F)F)c3)c3c(c2)C(=O)NC3c2cc(F)ccc2Cl)c1 (stereo not drawn) [Compound I-1588] | ≤ 0.1
22 | O=C(Nc1cc(-c2ccc3ncnn3c2)cc2c1[C@@H](c1cc(F)ccc1Cl)NC2=O)c1cccc(C(F)(F)F)c1 (stereo in doubt) [Compound I-1116] | 10 to 100
23 | Cn1ccc(-c2cc(NC(=O)c3cc(F)cc(C(F)(F)F)c3)c3c(c2)C(=O)N[C@H]3c2cc(F)ccc2Cl)cc1=O (stereo in doubt) [Compound I-1001] | 1 to 10

Row | Compound | IC50 [µM]
24 | [2H]c1nc2cnc(-c3cc(NC(=O)c4cc(F)cc(C(F)(F)F)c4)c4c(c3)C(=O)N[C@@H]4c3cc(F)ccc3Cl)cn2n1 [Compound I-2068] | 1 to 10
25 | CNC(=O)c1ccc(NC(=O)c2csc3ccccc23)c2c1C(=O)NC2c1ccccc1C (stereo not drawn) [Compound I-150] | ≤ 0.1
26 | CNc1cc(NC(=O)N2C[C@@](O)(C(F)(F)F)c3cc(F)ccc32)c2c(c1C#N)C(=O)N[C@H]2c1cc(F)ccc1Cl (single isomer, unassigned) [Compound I-2606] | 1 to 10
27 | O=C1NC(c2cc(F)ccc2Cl)c2c(NC(=O)N3CCC(C(F)(F)F)C3)cc(Br)cc21 (stereo not drawn) [Compound I-543] | 1 to 10
28 | Cc1ccccc1C1NC(=O)c2cccc(N)c21 (stereo not drawn) [Compound I-62] | 10 to 100
29 | C[C@@H](O)c1cc(-c2ccc3ncnn3c2)cc2c1[C@@H](c1cc(F)ccc1Cl)NC2=O (single isomer, unassigned) [Compound I-2230] | 10 to 100
30 | O=C(Nc1cc(Br)cc2c1C(c1cc(Cl)ccc1Cl)NC2=O)c1cc(F)cc(C(F)(F)F)c1 (stereo not drawn) [Compound I-763] | ≤ 0.1
31 | O=C1NC(c2cc(F)ccc2Cl)c2c(O)cc(-c3ccc4ncnn4c3)cc21 (stereo not drawn) [Compound I-1891] | 1 to 10
32 | O=C(Nc1cc(-c2ccc3cncn3c2)cc2c1C(c1cc(F)ccc1Cl)NC2=O)c1cc(F)cc(C(F)(F)F)c1 (stereo not drawn) [Compound I-1500] | ≤ 0.1
33 | O=C(Nc1cccc2c1C(c1ccnc(Cl)c1)NC2=O)c1cc(F)cc(C(F)(F)F)c1 (stereo not drawn) [Compound I-630] | 10 to 100
34 | CC(C(CO)CC(=O)Nc1cccc2c1C(c1cc(F)ccc1Cl)NC2=O)C(F)(F)F (mixture of isomers) [Compound I-2197] | 10 to 100
35 | N#Cc1cc2ncnn2cc1-c1cc(NC(=O)c2cc(F)cc(C(F)(F)F)c2)c2c(c1)C(=O)NC2c1cc(F)ccc1Cl (stereo not drawn) [Compound I-1539] | ≤ 0.1
36 | CC(C)c1cc(N)n(C(=O)Nc2cccc3c2C(c2cc(F)ccc2Cl)NC3=O)n1 (stereo not drawn) [Compound I-2465] | 10 to 100
37 | O=C(Nc1cc(-c2ccc3nccn3c2)cc2c1C(c1cc(F)ccc1Cl)NC2=O)c1cc(F)cc(C(F)(F)F)c1 (stereo not drawn) [Compound I-736] | ≤ 0.1
38 | O=C1NC(c2cc(F)ccc2Cl)c2c(NC(=O)C3CCCO3)cc(-c3ccc4ncnn4c3)cc21 (stereo not drawn) [Compound I-1831] | 10 to 100
39 | O=C1NC[C@H](c2cc(NC(=O)c3cc(F)cc(C(F)(F)F)c3)c3c(c2)C(=O)N[C@@H]3c2cc(F)ccc2Cl)O1 (single isomer, unassigned) [Compound I-1558] | 0.1 to 0.5
40 | O=C1NC(c2cc(F)ccc2Cl)c2c(NC(=O)C3CCS(=O)(=O)CC3)cc(-c3ccc4ncnn4c3)cc21 (stereo not drawn) [Compound I-2045] | 1 to 10
41 | Cc1ccccc1C1NC(=O)c2cccc(NC(=O)c3cc(F)cc(C4COC4)c3)c21 (stereo not drawn) [Compound I-657] | 1 to 10
42 | O=C1NC(c2cc(F)ccc2Cl)c2c(NC(=O)C34CC5CC(CC(O)(C5)C3)C4)cc(Br)cc21 (stereo not drawn) [Compound I-1363] | 1 to 10
43 | O=C(Nc1cc(-c2ccc3ncccc3c2)cc2c1[C@@H](c1cc(F)ccc1Cl)NC2=O)c1cc(F)cc(C(F)(F)F)c1 [Compound I-893] | 1 to 10
44 | Cn1cc(-c2cc(NC(=O)c3cc(F)cc(C(F)(F)F)c3)c3c(c2)C(=O)N[C@H]3c2cc(F)ccc2Cl)c(C#N)n1 [Compound I-1738] | ≤ 0.1
45 | O=C(Nc1cc(Br)cc2c1C(c1cc(F)ccc1Cl)NC2=O)c1cc(F)cc(OC(F)(F)F)c1 (stereo not drawn) [Compound I-831] | 0.1 to 0.5

From patent US12581252B2, “Substituted pyrrolo[3,4-b]pyridines as PI3K-α inhibitors” (Relay Therapeutics, Inc., priority 2020, dated 2026)
